Assay results published in US6987103B2, “Treatment of chronic myelogenous leukmia, resistant or intolerant to ST1571, involving homoharringtonine alone or combined with other agents” (Stragen Pharma S.A., priority 2001, dated 2006).

Legend:
[1] = system: accelerated phase chronic myelogenous leukemia; conditions: human, in vivo
Experimental: Description. […] The patient was resistant to interferon alpha, BCNU, HU at the time of initiation of induction with homoharringtonine (2.5 mg/m^2/day, 15 days). After white blood cell and platelet counts recovery, ten further 7-day cycles of homoharringtonine combined with cytarabine (Ara-C) 10 mg (flat dose) daily, were administered. An average of 7 days of daily Ara-C per 28-day cycle was used (see treatment plan of FIG. 1).

[2] = system: chronic phase of Philadelphia positive chronic myelogenous leukemia; assay: Case of patient #15 successively resistant to five drugs including STI571, treated by homoharringtonine; type: in vivo, human
Experimental: After a debulking treatment with hydroxyurea, a combination of interferon alpha (5 MU/m^2/day) and low-dose cytarabine was administered according to a standard regimen (subcutaneous mode of administration, 15 mg/m^2/day, daily, permanently). Then, to maintain hematologic response at the initial level, cytarabine regimen was increased to intermediate dose (200 mg/m^2/day). […] Finally, a treatment based on homoharringtonine alone was initiated. At the time of initiation of homoharringtonine treatment, WBC count was 31,000/μL: 2.5 mg/m^2/day, 14 days.

[3] = system: K562-r; assay: MTS cell proliferation assay, median effect combination analysis with STI571; type: cell-based, human; conditions: K562-r (STI571-resistant); STI571:HHT = 27.3:1
Text: (§1) The combination ratios are selected, where possible, such that both drugs are in a range relevant to their achievable serum concentrations. STI571-sensitive and resistant cells are exposed to doubling dilutions of homoharringtonine over a wide range (Table 1). […] The effects of homoharringtonine treatments are plotted and analyzed to produce computed estimations of the relative responses to either homoharringtonine alone or in combination. In this way it is possible to detect synergistic, additive or antagonistic effects. Duplicate or triplicate independent experiments are set up for each cell line/drug combination. In each case the analysis generates plots of CI (Combination Index) versus effect. […] These values are most relevant at high effect levels, as this is the desired physiological level of effect. Subsequently the CI curves can be represented as the average CI values at effects 0.5, 0.75 and 0.9 (IC50, IC75 and IC90 respectively). Cell proliferation is monitored with the CellTiter 96® AQucous One Solution Cell Proliferation Assay (Promega, UK). […] Proliferation is assessed on aliquots taken daily from days 1 to 4 in order to establish the most representative time-point. Replicate experiments are thereafter set up by plating the cells directly into 96-well plates and staining with MTS on day 3. A minimum of 95% viability as assessed by Trypan blue staining is required for the initiation of any experiment. […] Blank wells contained 100 μL RF10. All samples are plated in quadruplicate. […] On day 3, 20 μL of MTS reagent is added to each well, and the plate is re-incubated for a further 3–4 hours for stain development. At the end of this period, the plates are gently agitated and the absorbance of each well at 490 nm is recorded on an automatic microplate reader (MRX, Dynatech, Billingshurst, UK). Averaged blank values (no cells, no drug) are subtracted from sample values, and these corrected A490 values are calculated as percentages of the control cultures grown in the absence of drug. Error bars indicate the range defined in duplicate experiments, and significant differences considered as those which fell outside the region of overlap in the ranges of the means. Such an approach is supported by the non-parametric Mann-Whitney U test.

[4] = system: K562-s; assay: as above; type: cell-based, human; conditions: STI571:HHT = 27.3:1
Text: as §1

[5] = system: LAMA84-r; assay: as above; type: cell-based, human; conditions: LAMA84-r (STI571-resistant); STI571:HHT = 27.3:1
Text: as §1

[6] = system: LAMA84-s; assay: as above; type: cell-based, human; conditions: STI571:HHT = 27.3:1
Text: as §1

[7] = in vivo; cited from earlier work
[8] = system: Chronic myelogenous leukemia (CML); conditions: in vivo; cited from earlier work

Nc1ccn([C@@H]2O[C@H](CO)[C@@H](O)[C@@H]2O)c(=O)n1 [cytarabine]
adverse events attributable to the agent [1]: Mouth ulceration and alveolar hemorrhage

COC(=O)[C@H](CCSC)NC(=O)c1ccc(NC[C@@H](N)CS)cc1-c1ccccc1 [farnesyl transferase inhibitor]
peripheral blood response ([2]; patient #15, after first relapse under interferon alpha): transient peripheral blood response

COC(=O)C[C@](O)(CCCC(C)(C)O)C(=O)O[C@@H]1C(OC)=C[C@]23CCCN2CCc2cc4c(cc2[C@H]13)OCO4 [homoharringtonine]
Average CI (Combination index) at FA values of 0.5, 0.75 and 0.9 [3]: 0.6 | Average CI (Combination index) at FA values of 0.5, 0.75 and 0.9 [4]: 1.1 | Average CI (Combination index) at FA values of 0.5, 0.75 and 0.9 [5]: 0.6 | Average CI (Combination index) at FA values of 0.5, 0.75 and 0.9 [6]: 1.2 | adverse events attributable to the agent [1]: no non-hematologic adverse events attributable to homoharringtonine | WBC count ([2]; patient #15, day 17, HHT 2.5 mg/m^2/day, 14 days, 31,000/μL at initiation): 2,400 /μL | Drug concentration in serum [7]: 36.6 nM

interferon alpha
median survival [8]: about 7 years
